# Test results from PubChem BioAssay (NCI).
#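 Five concentrations, 48 hours, 96-well plates. TGI marks complete inhibition of growth.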
# Experiments:
# Experiment in all cases: growth of human tumour cells (NCI), 48 h
# CCRF-CEM leukemia = system: CCRF-CEM leukemia
# SF-268 CNS = system: SF-268 CNS
# RXF 393 renal = system: RXF 393 renal
# OVCAR-5 ovarian = system: OVCAR-5 ovarian
# SW-620 colon = system: SW-620 colon
# SF-539 CNS = system: SF-539 CNS
# PC-3 prostate = system: PC-3 prostate
# CAKI-1 renal = system: CAKI-1 renal
# ACHN renal = system: ACHN renal
# SK-MEL-28 melanoma = system: SK-MEL-28 melanoma
Structure (SMILES),TGI (CCRF-CEM leukemia) [µM],TGI (SF-268 CNS) [µM],TGI (RXF 393 renal) [µM],TGI (OVCAR-5 ovarian) [µM],TGI (SW-620 colon) [µM],TGI (SF-539 CNS) [µM],TGI (PC-3 prostate) [µM],TGI (CAKI-1 renal) [µM],TGI (ACHN renal) [µM],TGI (SK-MEL-28 melanoma) [µM]
Nc1c2ccccc2nc2ccc(C(=O)Nc3ccc(S(N)(=O)=O)cc3)cc12,> 100,> 100,> 100,> 100,> 100,> 100,> 100,> 100,> 100,> 100
O=C(C(=O)n1ccc2ccccc21)c1c[nH]c2ccccc12,> 10,> 10,> 10,> 10,> 10,> 10,> 10,> 10,> 10,> 10
CN(C)/C=C/c1ccnc2c1C(=O)c1ccccc1C2=O,> 56,> 69,> 100,32.5,21.5,39.5,56.7,50.8,> 50.7,5.95
CN(C)CCCN1c2ccc3ccccc3c2Sc2cccc(Cl)c21,3.52,32.5,10.4,17.7,4.33,20.7,11.8,16.6,12.6,4.3
CC(C)NC(=O)OCc1c(COC(=O)NC(C)C)c(-c2ccc[n+](COC(=O)C3CCCCC3)c2)n2c1CCC2,> 100,> 100,> 100,> 100,> 100,> 100,> 100,68.6,> 100,> 100
CC(C)(C)OC(=O)N1CC(COS(C)(=O)=O)c2ccc(O)cc21 (stereo not given),3.06,4.33,0.924,5.86,9.57,3.84,3.83,9.62,3.12,3.8
COc1cccc(C(=O)C(O)c2cccc(OC)c2OC)c1OC (stereo not given),> 100,> 100,> 100,> 100,> 100,> 100,> 100,> 100,> 100,> 100
c1ccc(C2(c3cc4ccccc4[nH]3)OCCO2)cc1,74,> 100,> 100,> 100,> 100,> 100,> 100,> 100,> 100,> 100
Fc1ccccc1N=c1oc2ccc(Br)cc2cc1-c1nc2ccccc2[nH]1,> 100,21,21.8,> 62.8,> 100,4.58,> 23.4,35.8,29.8,> 76.2
CC(C)(C)OC(=O)N(CCCN)CCCCN(CCCN)C(=O)OC(C)(C)C,> 100,> 100,> 100,> 100,> 100,> 100,> 100,> 100,> 100,> 100
Cc1ccc(-c2cn3c(nc4ccccc43)c(C)n2)cc1,> 100,> 100,> 64.4,> 100,> 100,> 100,> 100,> 100,> 100,> 100
O=C(O)CCCCCNC(=O)CCC(CN(CC(=O)OCc1ccccc1)CC(=O)OCc1ccccc1)N(CC(=O)OCc1ccccc1)CC(=O)OCc1ccccc1 (stereo not given),39.7,43.3,28.9,32.6,45.3,37.9,32.4,33.3,32,33.7
CN(C)CCCNc1ccc2nnn3c4ccc([N+](=O)[O-])cc4c(=O)c1c23,12.1,12,4.25,9.59,12.9,14.2,11.7,12.9,5.92,17.2
C=CCn1c(=O)c(-c2ccccc2)c(O)c2ccccc21,> 100,> 100,> 100,> 100,> 100,> 100,> 100,> 100,> 100,> 100
Cc1cc(C)n(CN(Cn2nc(C)cc2C)c2ccc(N(Cn3nc(C)cc3C)Cn3nc(C)cc3C)cc2)n1,63.9,69.7,42.6,51.1,61.4,35.3,74.6,62.4,38.2,37.1
O=C1NC(N2CCCC(CO)C2)=N/C1=C\c1ccc(O)cc1 (stereo not given),> 100,> 100,> 100,> 100,> 100,> 100,> 100,> 100,> 100,> 100
CC(C)Oc1c(O)c2c3c(oc(=O)n3C=CC2c2ccccc2F)c1OC(C)C (stereo not given),97.6,> 100,81.5,42.9,> 100,52.6,40.1,> 100,> 100,> 100
CCO/C=N/C1=C(C#N)C(c2ccc(OC)c(OC)c2)c2c(-c3ccccc3)nn(-c3ccccc3)c2O1 (stereo not given),6.26,61.7,29.8,52.6,29.2,33.7,> 100,33.3,28.3,29.4
